One series concerns HIV-1 IIIB. Nature of the series: HIV-1 viral infectivity inhibition, IIIB. Format: cell-based. To be noted: Human immunodeficiency virus 1, IIIB. The procedure:
(§1) The ability of the compounds to inhibit HIV-1 infectivity was assessed using standard assays as reported in the literature. See: 1) Desmezieres, E.; Gupta, N.; Vassell, R.; He, Y.; Peden, K.; Sirota, L.; Yang, Z.; Wingfield, P.; Weiss, C. D. J Virol 2005, 79, 4774, and 2) Lackman-Smith, C.; Osterling, C.; Luckenbaugh, K.; Mankowski, M.; Snyder, B.; Lewis, G.; Paull, J.; Profy, A.; Ptak, R. G.; Buckheit, R. W., Jr.; Watson, K. M.; Cummins, J. E.; Sanders-Beer, B. E. Antimicrob Agents Chemother 2008.

The next series deals with HIV-1 Ba-L. The experiment in a line: HIV-1 viral infectivity inhibition, Ba-L. Format: cell-based. To be noted: Human immunodeficiency virus 1, BAL. The procedure:
as §1

For series [1], the system named is Pseudovirus HIV-1 BAL (CCR5-tropic strain).
A short description of another series: in vitro. To be noted: human.
Series [2] deals with Pseudovirus HIV-1 BAL (CCR5-tropic strain). The experiment in a line: microbe, parasite or virus in culture. To be noted: MAGI.
A short description of series [3]: cytotoxicity, luciferase expression-based test. To be noted: human, TZM-bl cells.
In series [4] the target is T1, gp41 hydrophobic pocket (receptor Fe(env2.0)3) (Human immunodeficiency virus type 1 group M subtype B, UniProt P04578).
T1 construct: utilizing a receptor Fe(env2.0)3 selective for the hydrophobic pocket
Nature of the series: competitive inhibition fluorescence binding assay for the gp41 hydrophobic pocket. Also noted: species or system HIV-1. To be noted: binding constant, hydrophobic pocket of gp41. As to the method:
Compounds were validated for binding activity with a biochemical assay, and for biological activity with a cell-cell fusion (CCF) assay.
Association between the C-peptide and receptor leads to fluorescence quenching, which is reversed in the presence of an inhibitor. […] The assay is quantitative and provides the binding constant (KI) of the inhibitor.
Toxicity of the compounds to TZM-bl cells was also tested to ensure that the luminescence decrease was not simply due to cell death (CC50, toxicity).

Another series has as its system TZM-bl cells. Nature of the series: cytotoxicity, luciferase expression-based test. To be noted: toxicity to TZM-bl cells, 24 hour exposure.
For the next series, the system named is MAGI cells. To be noted: human.
Another series deals with HIV-1 HXB2. Nature of the series: HIV-1 viral infectivity inhibition, HXB2. Format: cell-based. To be noted: Human immunodeficiency virus 1, HXB2. The procedure: as §1

Read-outs that look alike come from different tables or passages of the source.

This is an account of results in patent US8455516B2, “HIV-1 fusion inhibitors and methods” (Touro University, priority 2010, dated 2013).

As usually defined, the IC50 is the concentration needed to halve the response being measured. Low readings indicate greater potency in that assay, high ones weaker potency in that assay. In general, IC90 refers to the concentration at which the effect reaches the 90% level. Low readings indicate an effect from little substance, high ones a need for much substance. Broadly, the Ki is the equilibrium dissociation constant of an inhibitor or competing ligand from its target. Low values mean higher affinity, high ones lower affinity.

Take `COc1cccc(-c2ccc3ccn(Cc4cccc(C(=O)O)c4)c3c2)c1` [Compound I-11, 3-((6-(3-methoxyphenyl)-1H-indol-1-yl)methyl)benzoic acid]: the 50% inhibitory concentration (IC50) in the series with HIV-1 IIIB turned out to be 57.4 µM; in the series with HIV-1 Ba-L it was 47.4 µM; in [2] (2% Serum) it was 18 µM; in series [2] (5% Serum) it was 36.6 µM; in series [2] (10% Serum), 47.4 µM. Besides, the entries for the “TI (TC50/IC50)” value in series [1] (2% Serum), in [1] (5% Serum) and in series [1] (10% Serum) were 3.75, over 2.73 and over 2.11, respectively. For the same molecule, in “in vitro”, the CC50 was over 100 µM. Further, the concentration for an effect of 90% (IC90) in [2] (2% Serum), in series [2] (5% Serum) and in [2] (10% Serum) was over 100 µM in each case. The molecule further returned a CC50 at 24 h in series [3] of over 100 µM.

In [3], `O=C(O)c1cccc(Cc2ccc3ccn(Cc4cccc(C(=O)O)c4)c3c2)c1` [Compound I-4, 3-((1-(3-(carboxy)benzyl)-1H-indol-6-yl)methyl)benzoic acid] registered a CC50 at 24 h of over 200 µM.

For the molecule `COc1ccc(C(=O)O)cc1Cc1ccc2cc[nH]c2c1` [Compound I-17, 3-((1H-indol-6-yl)methyl)-4-methoxybenzoic acid], the CC50 at 24 h in series [3] is over 100 µM.

Molecule `O=C(O)c1cccc(-c2ccc3cc[nH]c3c2)c1` [Compound I-12, 3-(1H-indol-6-yl)benzoic acid] registered a CC50 at 24 h in [3] of over 100 µM.

The molecule `O=C(O)c1cccc(Cc2ccc3ccn(-c4cccc(C(=O)O)c4)c3c2)c1` [Compound I-6, 3-(6-(3-carboxybenzyl)-1H-indol-1-yl)benzoic acid] yielded an inhibition constant Ki in series [4] of 45 ± 5 µM. In the series on TZM-bl cells, this molecule displayed a CC50 of over 400 µM.

In the case of `O=C(O)c1ccc([N+](=O)[O-])c(Cc2ccc3cc[nH]c3c2)c1` [Compound I-16, 3-((1H-indol-6-yl)methyl)-4-nitrobenzoic acid], in [3], the CC50 at 24 h was over 100 µM.

For the molecule `COc1ccc(Cn2ccc3ccc(Cc4cccc(C(=O)O)c4)cc32)cc1` [Compound I-2, 3-((1-(4-methoxybenzyl)-1H-indol-6-yl)methyl)benzoic acid], in the series with TZM-bl cells, the CC50 is 100 µM.

With `O=C(O)c1cccc(Cn2ccc3ccc(-c4ccc5cc(Cl)ccc5n4)cc32)c1` [II-1, 3-((6-(6-chloroquinolin-2-yl)-1H-indol-1-yl)methyl)benzoic acid], in [3], the CC50 at 24 h stood at 93 µM.

Take `O=C(O)c1cccc(Cn2ccc3cc(-c4cccc(C(=O)O)c4)ccc32)c1` [Compound I-13, 3-(1-(3-carboxybenzyl)-1H-indol-5-yl)benzoic acid]: the CC50 with TZM-bl cells was over 400 µM.

Regarding `O=C(O)c1cccc(Cc2ccc3[nH]ccc3c2)c1` [Compound I-9, 3-((1H-indol-5-yl)methyl)benzoic acid], the CC50 at 24 h in series [3] was over 400 µM.

Take `COc1cccc(-n2ccc3ccc(Cc4cccc(C(=O)O)c4)cc32)c1` [Compound I-7, 3-((1-(3-methoxyphenyl)-1H-indol-6-yl)methyl)benzoic acid]: the 50% inhibitory concentration (IC50) was 61.5 µM in the series on HIV-1 IIIB; 67.7 µM with HIV-1 Ba-L; 15.8 µM in [2] (2% Serum); 34 µM in series [2] (5% Serum); 67.7 µM in series [2] (10% Serum). For the same molecule, the “TI (TC50/IC50)” value in [1] (2% Serum) was over 6.33; in [1] (5% Serum), over 2.94; in [1] (10% Serum), over 1.48. In addition, the CC50 in the series with MAGI cells and in the series “in vitro” was over 100 µM each time. The IC90 in series [2] (2% Serum), in series [2] (5% Serum) and in series [2] (10% Serum) was over 100 µM each time. In addition, the CC50 at 24 h in series [3] is over 100 µM.

For `O=[N+]([O-])c1cccc(Cc2ccc3cc[nH]c3c2)c1` [Compound I-15, 6-(3-nitrobenzyl)-1H-indole], in series [3], the CC50 at 24 h is about 63 µM.

Consider `O=C(O)c1cccc(Cc2ccc3ccn(Cn4ccc5ccc(Cc6cccc(C(=O)O)c6)cc54)c3c2)c1` [Compound I-5, 3,3′-(1,1′-methylenebis(1H-indole-6,1-diyl))bis(methylene)dibenzoic acid], for which the IC50 is 17 µM in the series on HIV-1 HXB2; at least 100 µM in the series on HIV-1 IIIB; 92.1 µM in the series with HIV-1 Ba-L; 14.6 µM in series [2] (2% Serum); 49.6 µM in series [2] (5% Serum); 92.1 µM in [2] (10% Serum). Moreover, the “TI (TC50/IC50)” value in series [1] (2% Serum) was over 6.85; in series [1] (5% Serum), over 2.02; in [1] (10% Serum), over 1.09. In addition, the CC50 in the series with MAGI cells and in “in vitro” was over 100 µM throughout. Further, the results for the 90% effect concentration (IC90) in [2] (2% Serum), in [2] (5% Serum) and in series [2] (10% Serum) were 71.2 µM, 93.6 µM and over 100 µM, respectively. Besides, the CC50 at 24 h in series [3] was over 100 µM.

Regarding `O=C(O)c1cccc(Cn2ccc3cc(-c4ccc5cc(Cl)ccc5n4)ccc32)c1` [II-2, 3-((5-(6-chloroquinolin-2-yl)-1H-indol-1-yl)methyl)benzoic acid], the CC50 at 24 h in series [3] worked out at 156 µM.

For `O=C(O)C(=O)c1c[nH]c2cc(Cc3cccc(C(=O)O)c3)ccc12` [Compound I-3, 3-((3-(carboxycarbonyl)-1H-indol-6-yl)methyl)benzoic acid], in series [3], the CC50 at 24 h is over 100 µM.

In turn, `O=C(O)c1ccc(O)c(Cc2ccc3cc[nH]c3c2)c1` [Compound I-19, 3-((1H-indol-6-yl)methyl)-4-hydroxybenzoic acid] showed a CC50 at 24 h in series [3] of over 100 µM.

For `O=C(O)c1cccc(Cc2ccc3c(ccn3Cc3cccc(C(=O)O)c3)c2)c1` [Compound I-10, 3-((1-(3-carboxybenzyl)-1H-indol-5-yl)methyl)benzoic acid], the CC50 in the series on TZM-bl cells is over 400 µM.

`COc1ccc(COc2cccc(-c3ccc4ccn(Cc5cccc(C(=O)OCc6cccc(C(=O)O)c6)c5)c4c3)c2)cc1` [Compound I-22, 3-((3-((6-(3-(4-methoxybenzyloxy)phenyl)-1H-indol-1-yl)methyl)benzoyloxy)methyl)benzoic acid]: the “TI (TC50/IC50)” value in series [1] (2% Serum) is given as 4.27; in series [1] (5% Serum), over 5.35; in series [1] (10% Serum), over 4.42. In “in vitro”, this molecule registered a CC50 of over 100 µM. In addition, the 50% inhibitory concentration (IC50) was found to be 13.8 µM in series [2] (2% Serum), 18.7 µM in [2] (5% Serum) and 22.6 µM in series [2] (10% Serum). The 90% effect concentration (IC90) in [2] (2% Serum) was determined as 31.1 µM; in series [2] (5% Serum), 76.4 µM; in series [2] (10% Serum), 91.7 µM. Moreover, the CC50 at 24 h in [3] was over 100 µM.

In series [3], `O=C(O)c1cccc(COc2cccc(-c3ccc4ccn(Cc5cccc(C(=O)O)c5)c4c3)c2)c1` [Compound I-21, 3-((3-(1-(3-carboxybenzyl)-1H-indol-6-yl)phenoxy)methyl)benzoic acid] yielded a CC50 at 24 h of over 100 µM.

`O=C(O)c1cc(O)cc(Cc2ccc3cc[nH]c3c2)c1` [Compound I-18, 3-((1H-indol-6-yl)methyl)-5-hydroxybenzoic acid] yielded a CC50 at 24 h in series [3] of over 100 µM.

In series [3], `O=Cc1c[nH]c2cc(Cc3cccc(C(=O)O)c3)ccc12` [Compound I-8, 3-((3-formyl-1H-indol-6-yl)methyl)benzoic acid] came in with a CC50 at 24 h of over 100 µM.

`O=C(O)c1cccc(Cn2ccc3ccc(-c4cccc(O)c4)cc32)c1` [Compound I-14, 3-((6-(3-hydroxyphenyl)-1H-indol-1-yl)methyl)benzoic acid] registered a CC50 at 24 h in series [3] of over 100 µM.

In [3], `COc1ccc(Cn2ccc3ccc(-c4ccc5ccn(Cc6cccc(C(=O)O)c6)c5c4)cc32)cc1` [II-3, 3-((1′-(4-methoxybenzyl)-1H,1′H-6,6′-biindol-1-yl)methyl)benzoic acid] had a CC50 at 24 h of 18.9 ± 2.9 µM.

In the case of `O=C(O)c1cccc(Cc2ccc3cc[nH]c3c2)c1` [Compound I-1, 3-((1H-indol-6-yl)methyl)benzoic acid], the 50% inhibitory concentration (IC50) was 99.9 µM with HIV-1 IIIB; 44.7 µM with HIV-1 Ba-L; 15.5 µM in series [2] (2% Serum); 34.8 µM in [2] (5% Serum); 44.7 µM in [2] (10% Serum). For the same molecule, the “TI (TC50/IC50)” value is on record as over 6.45 in series [1] (2% Serum), over 2.87 in series [1] (5% Serum) and over 2.24 in [1] (10% Serum). Also, the CC50 with MAGI cells and in “in vitro” was over 100 µM throughout. Also, the IC90 was 58 µM in series [2] (2% Serum), 89.4 µM in [2] (5% Serum) and over 100 µM in [2] (10% Serum). In [3], this molecule yielded a CC50 at 24 h of over 500 µM.

For the molecule `COc1cc(Cc2ccc3cc[nH]c3c2)cc(C(=O)O)c1` [Compound I-20, 3-((1H-indol-6-yl)methyl)-5-methoxybenzoic acid], the CC50 at 24 h in series [3] is over 100 µM.
